Several values for one entry are separate records, joined by “and”; a condition that tells them apart may be missing. Equal values may be shown once.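 A five-concentration, 48-hour dose response in 96-well plates underlies each endpoint, interpolated linearly between surrounding concentrations. GI50 is the concentration that inhibits growth by half. TGI denotes the concentration required for complete inhibition of growth.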
Assays:
Assay in all cases: inhibition of tumour cell growth, NCI panel, 48 h
ACHN renal = system: ACHN renal
HL-60(TB) leukemia = system: HL-60(TB) leukemia
HOP-62 NSCLC = system: HOP-62 NSCLC
HT29 colon = system: HT29 colon
LOX IMVI melanoma = system: LOX IMVI melanoma
MALME-3M melanoma = system: MALME-3M melanoma
NCI/ADR-RES ovarian = system: NCI/ADR-RES ovarian
RXF 393 renal = system: RXF 393 renal
SK-OV-3 ovarian = system: SK-OV-3 ovarian
SNB-19 CNS = system: SNB-19 CNS

SMILES	GI50 (ACHN renal) [µM]	TGI (ACHN renal)	GI50 (HL-60(TB) leukemia) [µM]	TGI (HOP-62 NSCLC)	GI50 (HT29 colon)	TGI (HT29 colon)	TGI (LOX IMVI melanoma)	GI50 (MALME-3M melanoma) [µM]	TGI (MALME-3M melanoma)	TGI (NCI/ADR-RES ovarian) [µM]	GI50 (RXF 393 renal) [µM]	TGI (RXF 393 renal)	GI50 (SK-OV-3 ovarian) [µM]	TGI (SK-OV-3 ovarian)	GI50 (SNB-19 CNS) [µM]	TGI (SNB-19 CNS)	TGI (HL-60(TB) leukemia) [µM]	GI50 (HOP-62 NSCLC) [µM]	GI50 (LOX IMVI melanoma) [µM]	GI50 (NCI/ADR-RES ovarian) [µM]
CC(=O)O[C@@H]1c2c(c3c(=O)c4cccc(O)c4c(=O)c=3c2=[N+]=[N-])[C@H](OC(C)=O)[C@@H](OC(C)=O)[C@]1(C)O	0.161	0.374 µM and 0.3 µM	0.172	1.37 µM and 1.98 µM	0.135 µM and 0.113 µM	0.605 µM and 0.265 µM	0.413 µM and 0.275 µM	0.269	0.929 µM and 0.972 µM	0.658	0.147	1.28 µM and 0.296 µM	1.01	2.11 µM and 2 µM	0.689	2.35 µM and 3.51 µM				
Oc1ccc(N=Nc2ccc(Br)cc2)c(O)c1	5.44	37.5 µM	1.71	19.5 µM	15.5 µM	77.9 µM	61.1 µM	3.61	20.7 µM	9.29	1.19	9.56 µM	3.24	18.3 µM	4	68.8 µM	4.53	3.9	8.05	3.07
CCCCCN(CCCCC)CCC[C@@H](C)[C@H]1CC[C@H]2[C@@H]3[C@H](OCCCN)C[C@@H]4C[C@H](OCCCN)CC[C@]4(C)[C@H]3C[C@H](OCCCN)[C@]12C	8.8	35 µM	2.14	23.5 µM	2.65 µM	15.3 µM	10.2 µM	4.8	17.7 µM	37.7	11.9	32.7 µM	15.9	34.9 µM	7.9	24.3 µM	5.81	5.23	2.16	12.1
CC(C)(C)c1cc(C[P+](c2ccccc2)(c2ccccc2)c2ccccc2)cc(C(C)(C)C)c1O	2.63	10.8 µM	0.22	3.94 µM	0.184 µM	1.65 µM	1.89 µM	0.291	0.947 µM	33.8	1	4.67 µM	1.44	6.7 µM	0.354	13.8 µM	0.682	0.66	0.457	9.12
O=C(Nc1ccc(I)cc1F)c1cc(Br)ccc1O	0.592	11.4 µM	0.472	7.04 µM	3.29 µM	> 35.1 µM	2.75 µM	0.379	2 µM	4.5	0.778	3.6 µM	0.681	2.92 µM	0.41	> 100 µM	3.5	2.03	0.474	0.613
CCCCCSc1ccc2nc(NC(=O)OCC)sc2c1	0.908	> 100 µM	0.351	31.1 µM	0.348 µM	> 100 µM	> 100 µM	0.514	> 100 µM	3.82	1.03	9.19 µM	0.535	> 100 µM	0.778	> 100 µM	> 100	0.491	0.455	0.357
Cc1ccc(-c2cc(C(=O)Nc3ccc(S(=O)(=O)N4CCCCC4)cc3)[nH]n2)c(O)c1	> 100	> 100 µM	> 100	> 100 µM	> 100 µM	> 100 µM	> 100 µM	> 100	> 100 µM	> 100	> 100	> 100 µM	> 100	> 100 µM	> 100	> 100 µM	> 100	> 100	> 100	> 100

Reference: PubChem BioAssay (NCI)
